Results published in publication PMC10755728, “Inhibitors of the Elastase LasB for the Treatment of Pseudomonas aeruginosa Lung Infections” (ACS Central Science, 2023).
Like-named read-outs stand apart in the source and are kept apart here.

What was measured:
LasB = molecular target: T1, LasB (Pseudomonas aeruginosa, UniProt Q02RJ6); assay: biochemical; type: biochemical; conditions: for fold drop in activity compared to the 4-Me derivative (4a): vs 4a; for inhibition at 100 µM: read-out: % inh LasB @100 µM
T1 construct: made in house

[1] = Lipophilicity determination (LogD7.4, HPLC-MS); type: physicochemical; conditions: pH 7.4, pH 7.4, chromatographic
Method: Lipophilicity determination. LogD7.4 was analyzed using an HPLC−MS based method.50 The retention time of 12 compounds with known LogD7.4 was determined and plotted toward their LogD7.4. Linear regression was used to determine the LogD7.4 of unknown compounds. Analysis was performed using a Dionex Ultimate 3000 HPLC system coupled to a TSQ Quantum Access MAX (Thermo Fisher, Dreieich, Germany) with the following conditions: EC150/2 NUCLEODUR C18 Pyramid column, 5 μM (Macherey Nagel, Düren, Germany); eluent A: 50 mM NH4OAc pH 7.4, eluent B: acetonitrile, and flow: 0.6 mL/min.

[2] = Metabolic stability in mouse liver S9 fraction; type: in vitro ADME
[3] = Metabolic stability in human liver S9 fraction; type: in vitro ADME
Plasma stability, mouse = type: in vitro ADME; conditions: mouse plasma; read-out: Plasma T1/2 Mouse
Calu-3 permeability = type: in vitro ADME; conditions: human
MMP-1 = molecular target: T2, MMP-1 (Homo sapiens, UniProt P03956); assay: MMP-1 inhibition assay; type: biochemical; conditions: read-out: % inhibition MMP-1
T2 construct: purchased AnaSpec (Fremont, CA, USA)
T2 sequence (P03956 100-469): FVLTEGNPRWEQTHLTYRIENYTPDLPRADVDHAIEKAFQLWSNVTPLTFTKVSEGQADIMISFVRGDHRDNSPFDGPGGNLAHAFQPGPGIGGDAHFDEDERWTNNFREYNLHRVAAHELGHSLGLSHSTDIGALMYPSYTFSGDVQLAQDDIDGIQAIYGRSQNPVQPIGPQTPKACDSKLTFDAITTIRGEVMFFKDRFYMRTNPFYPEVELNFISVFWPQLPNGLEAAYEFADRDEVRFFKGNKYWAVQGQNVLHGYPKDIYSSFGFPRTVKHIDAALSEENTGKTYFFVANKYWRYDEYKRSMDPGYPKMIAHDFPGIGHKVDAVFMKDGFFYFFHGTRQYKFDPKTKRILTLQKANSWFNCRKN

MMP-2 = molecular target: T3, MMP-2 (Homo sapiens, UniProt P08253); assay: MMP-2 inhibition assay; type: biochemical; conditions: read-out: % inhibition MMP-2
T3 construct: purchased AnaSpec (Fremont, CA, USA)
T3 sequence (P08253 110-660): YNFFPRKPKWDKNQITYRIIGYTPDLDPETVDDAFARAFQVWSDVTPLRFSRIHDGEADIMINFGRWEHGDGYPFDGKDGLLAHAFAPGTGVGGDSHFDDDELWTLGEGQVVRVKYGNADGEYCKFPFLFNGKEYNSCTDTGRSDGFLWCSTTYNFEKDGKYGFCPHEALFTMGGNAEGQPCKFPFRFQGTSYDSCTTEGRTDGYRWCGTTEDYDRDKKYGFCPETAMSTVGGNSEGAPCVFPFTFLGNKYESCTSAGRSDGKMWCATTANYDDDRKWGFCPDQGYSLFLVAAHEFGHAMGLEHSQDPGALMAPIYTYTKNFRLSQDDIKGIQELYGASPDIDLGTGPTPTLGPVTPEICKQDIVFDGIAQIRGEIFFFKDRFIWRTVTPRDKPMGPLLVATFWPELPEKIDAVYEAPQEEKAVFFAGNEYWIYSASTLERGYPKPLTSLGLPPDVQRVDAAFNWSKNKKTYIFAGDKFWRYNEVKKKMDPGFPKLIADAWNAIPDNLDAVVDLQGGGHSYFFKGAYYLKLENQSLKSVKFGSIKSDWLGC

MMP-3 = molecular target: T4, MMP-3 (Homo sapiens, UniProt P08254); assay: MMP-3 inhibition assay; type: biochemical; conditions: read-out: % inhibition MMP-3
T4 construct: purchased AnaSpec (Fremont, CA, USA)

HDAC-3 = molecular target: T5, HDAC-3 (Homo sapiens, UniProt O15379); assay: HDAC-3 inhibitor screening kit; type: biochemical
T5 construct: purchased Sigma-Aldrich (Saint Louis, MO)

HDAC-8 = molecular target: T6, HDAC-8 (Homo sapiens, UniProt Q9BY41); assay: HDAC-8 inhibitor screening kit; type: biochemical
T6 construct: purchased Sigma-Aldrich (Saint Louis, MO)
T6 sequence (Q9BY41 1-377): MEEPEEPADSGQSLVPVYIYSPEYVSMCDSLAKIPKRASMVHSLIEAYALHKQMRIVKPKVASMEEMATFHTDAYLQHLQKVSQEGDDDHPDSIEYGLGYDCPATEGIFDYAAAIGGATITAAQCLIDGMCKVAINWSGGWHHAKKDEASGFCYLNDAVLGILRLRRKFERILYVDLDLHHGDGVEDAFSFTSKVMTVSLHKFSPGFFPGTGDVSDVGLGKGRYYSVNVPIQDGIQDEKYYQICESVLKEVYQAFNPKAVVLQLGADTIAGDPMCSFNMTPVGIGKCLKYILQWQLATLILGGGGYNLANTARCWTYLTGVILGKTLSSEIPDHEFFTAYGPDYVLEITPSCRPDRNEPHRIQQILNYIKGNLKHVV

TACE = molecular target: T7, TACE (Homo sapiens, UniProt P78536); assay: TACE inhibitor screening kit; type: biochemical; conditions: read-out: % inhibition TACE
T7 construct: purchased Sigma-Aldrich (Saint Louis, MO)

COX-1 = molecular target: T8, COX-1 (Ovis aries, UniProt P05979); assay: Fluorometric COX-1 inhibitor assay; type: biochemical, human
T8 construct: purchased Abcam (Cambridge, UK)
T8 sequence (P05979 25-600): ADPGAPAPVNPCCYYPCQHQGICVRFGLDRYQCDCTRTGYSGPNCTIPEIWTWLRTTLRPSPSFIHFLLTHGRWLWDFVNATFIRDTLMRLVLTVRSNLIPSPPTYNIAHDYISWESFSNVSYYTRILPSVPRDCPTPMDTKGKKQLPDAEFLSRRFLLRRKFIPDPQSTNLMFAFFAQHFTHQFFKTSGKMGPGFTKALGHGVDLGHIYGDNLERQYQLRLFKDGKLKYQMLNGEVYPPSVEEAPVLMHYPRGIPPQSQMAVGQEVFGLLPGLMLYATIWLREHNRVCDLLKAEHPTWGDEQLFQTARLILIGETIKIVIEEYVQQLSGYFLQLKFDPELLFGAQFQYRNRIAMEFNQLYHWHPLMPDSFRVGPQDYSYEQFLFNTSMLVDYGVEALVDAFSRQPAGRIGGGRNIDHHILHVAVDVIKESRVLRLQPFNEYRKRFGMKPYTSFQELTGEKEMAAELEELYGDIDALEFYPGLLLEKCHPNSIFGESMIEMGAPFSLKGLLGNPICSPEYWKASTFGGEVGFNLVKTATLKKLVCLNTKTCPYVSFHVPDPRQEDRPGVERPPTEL

ColH-PD = ColH-PD (Hathewaya histolytica, UniProt Q46085); assay: biochemical; type: biochemical, Clostridium histolyticum; conditions: read-out: % inhibition ColH-PD @1 µM
P. aeruginosa PA14 = assay: Bacterial growth inhibition assay; type: cell-based, Pseudomonas aeruginosa; conditions: Pseudomonas aeruginosa, PA14; 100 µM compound concentration; read-out: Percent (%) growth inhibition of P. aeruginosa PA14
Method: Bacterial growth inhibition assay. Assays regarding the determination of the MIC were
performed as described recently for P. aeruginosa PA14.58

HEK293 = conditions: human, 48 h, 100 µM
Method: Culturing of HepG2, A549 and HEK293 cells. The human hepatocellular carcinoma cell line HepG2, the lung adenocarcinoma cell line A549 and Human Embryonic (HEK) 293 cells were cultured in Dulbecco's Modified Eagle Medium (DMEM), containing 10% Fetal Bovine Serum
(FBS) and 1% penicillin-streptomycin mixture. Cells were maintained according to standard cell
Cytotoxicity assay. An MTT-based assay was employed to evaluate the viability of HepG2,
HEK293 and A549 cells after challenge with selected LasB inhibitors and performed as described

[4] = FRET-based assay, read-out: LasB IC50

T5 sequence (O15379 whole entry): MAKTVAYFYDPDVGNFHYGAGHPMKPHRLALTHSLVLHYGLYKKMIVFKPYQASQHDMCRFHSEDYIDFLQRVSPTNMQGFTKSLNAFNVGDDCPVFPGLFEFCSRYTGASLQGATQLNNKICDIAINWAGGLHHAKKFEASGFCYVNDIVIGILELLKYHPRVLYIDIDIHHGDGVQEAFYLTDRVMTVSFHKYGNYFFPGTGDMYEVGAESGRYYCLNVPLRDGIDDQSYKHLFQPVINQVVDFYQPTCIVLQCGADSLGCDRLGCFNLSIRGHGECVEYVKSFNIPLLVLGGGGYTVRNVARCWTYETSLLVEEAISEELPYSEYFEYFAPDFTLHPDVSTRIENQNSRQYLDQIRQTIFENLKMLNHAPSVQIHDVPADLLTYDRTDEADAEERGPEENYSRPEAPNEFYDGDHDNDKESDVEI
T5 sequence (Q9Y618 395-489 partner limits assumed): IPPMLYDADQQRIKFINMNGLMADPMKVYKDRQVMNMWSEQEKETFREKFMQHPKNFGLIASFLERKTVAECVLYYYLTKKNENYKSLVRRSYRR
T7 sequence (P78536 215-824): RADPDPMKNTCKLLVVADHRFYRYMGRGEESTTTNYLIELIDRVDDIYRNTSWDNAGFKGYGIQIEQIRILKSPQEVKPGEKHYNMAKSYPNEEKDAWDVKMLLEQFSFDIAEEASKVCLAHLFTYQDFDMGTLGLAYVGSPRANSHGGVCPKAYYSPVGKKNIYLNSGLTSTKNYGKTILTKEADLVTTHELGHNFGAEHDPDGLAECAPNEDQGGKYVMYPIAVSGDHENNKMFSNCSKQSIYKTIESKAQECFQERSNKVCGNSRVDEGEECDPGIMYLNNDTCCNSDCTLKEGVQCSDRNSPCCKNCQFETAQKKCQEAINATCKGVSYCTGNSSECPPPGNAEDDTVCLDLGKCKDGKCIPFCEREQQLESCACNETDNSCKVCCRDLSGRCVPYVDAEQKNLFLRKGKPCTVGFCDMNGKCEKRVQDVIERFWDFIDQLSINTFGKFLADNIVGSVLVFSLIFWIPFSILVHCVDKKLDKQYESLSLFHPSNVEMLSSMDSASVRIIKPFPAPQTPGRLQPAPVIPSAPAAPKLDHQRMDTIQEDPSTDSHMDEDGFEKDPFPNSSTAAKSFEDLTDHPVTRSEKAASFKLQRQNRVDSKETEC
T1 sequence (Q02RJ6 198-498): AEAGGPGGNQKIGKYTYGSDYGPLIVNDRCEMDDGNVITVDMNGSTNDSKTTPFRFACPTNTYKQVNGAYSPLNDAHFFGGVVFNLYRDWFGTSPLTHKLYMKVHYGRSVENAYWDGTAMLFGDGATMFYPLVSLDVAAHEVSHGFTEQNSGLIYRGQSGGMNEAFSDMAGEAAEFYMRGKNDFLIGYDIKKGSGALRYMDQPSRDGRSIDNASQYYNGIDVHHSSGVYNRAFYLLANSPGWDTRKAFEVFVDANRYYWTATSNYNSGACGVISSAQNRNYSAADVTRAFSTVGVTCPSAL
T4 sequence (P08254 100-477): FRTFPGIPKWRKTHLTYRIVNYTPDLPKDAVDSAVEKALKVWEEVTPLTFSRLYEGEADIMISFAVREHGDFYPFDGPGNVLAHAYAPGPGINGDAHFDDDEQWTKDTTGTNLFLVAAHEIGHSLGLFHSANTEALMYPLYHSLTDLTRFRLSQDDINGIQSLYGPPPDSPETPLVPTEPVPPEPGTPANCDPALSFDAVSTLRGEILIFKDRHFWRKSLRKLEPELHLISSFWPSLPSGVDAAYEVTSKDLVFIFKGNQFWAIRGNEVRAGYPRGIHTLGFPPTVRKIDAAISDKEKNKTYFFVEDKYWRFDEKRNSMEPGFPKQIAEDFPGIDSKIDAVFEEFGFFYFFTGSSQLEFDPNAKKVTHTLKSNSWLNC
Chain of ColH-PD (Q46085 331-721 limits assumed): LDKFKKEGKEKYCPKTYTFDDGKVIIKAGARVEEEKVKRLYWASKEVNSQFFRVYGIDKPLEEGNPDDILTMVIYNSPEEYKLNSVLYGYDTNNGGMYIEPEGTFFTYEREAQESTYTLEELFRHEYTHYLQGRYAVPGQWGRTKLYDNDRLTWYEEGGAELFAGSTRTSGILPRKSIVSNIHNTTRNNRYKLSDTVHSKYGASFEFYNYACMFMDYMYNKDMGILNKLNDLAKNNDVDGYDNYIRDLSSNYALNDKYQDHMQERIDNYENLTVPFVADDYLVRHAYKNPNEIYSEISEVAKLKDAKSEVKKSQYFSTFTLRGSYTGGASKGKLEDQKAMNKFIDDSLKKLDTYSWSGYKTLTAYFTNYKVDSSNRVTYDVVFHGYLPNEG

SMILES: CC(C)CC(C(=O)Nc1ccc(Cl)cn1)P(=O)(O)O (stereo not drawn) [Compound 4p]
- IC50 (LasB; [4]): 0.5 ± 0.04 µM
- fold more potent than 4q (LasB; vs 4q): 2 fold

SMILES: Cc1ccc(NC(=O)C(CC(C)C)S(=O)(=O)O)cc1 (stereo not drawn) [Compound 3i]
- IC50 (LasB; LasB IC50, FRET-based assay): 16 µM
- chromatographic logD [1]: -0.64
- microsomal CLint at 1 μM [2]: < 5.8 µL/min/mg
- microsomal CLint at 1 μM [3]: < 5.8 µL/min/mg
- half-life at 1 μM (Plasma stability, mouse): > 2.5 h
- Papp at 300 min (Calu-3 permeability): 4.7 ± 3.6 nm/s
- inhibition at 100 µM (MMP-1; 100 μM): 12 ± 2%
- inhibition at 100 µM (MMP-2; 100 μM): < 10%
- inhibition at 100 µM (MMP-3; 100 μM): < 10%
- inhibition at 100 µM (HDAC-3): < 10%
- inhibition at 100 µM (HDAC-8): < 10%
- inhibition at 100 µM (TACE; 100 μM): < 10%
- inhibition at 100 µM (COX-1): < 10%

SMILES: CC(C)CC(C(=O)Nc1ccc(Cl)cc1)P(=O)(O)O (stereo not drawn) [Compound 4i]
- IC50 (LasB; [4]): 0.0476 ± 0.0044 µM

SMILES: Cc1ccc(NC(=O)C(CC(C)C)P(=O)(O)O)c(F)c1 (stereo not drawn) [Compound 4d]
- IC50 (LasB; [4]): 0.116 ± 0.0161 µM
- fold drop in activity compared to the 4-Me derivative (4a) (LasB): ~2 fold
- inhibition at 1 µM (ColH-PD): < 10%

SMILES: CC(C)CC(C(=O)Nc1ccc(Br)cc1)P(=O)(O)O (stereo not drawn) [Compound 4j]
- IC50 (LasB; [4]): 0.0486 ± 0.0023 µM

SMILES: Cc1ccc(NC(=O)C(CC(C)C)n2ccnn2)cc1 (stereo not drawn) [Compound 3l]
- chromatographic logD [1]: > 1.8
- microsomal CLint at 1 μM [2]: 90 ± 9 µL/min/mg
- microsomal CLint at 1 μM [3]: 8.8 ± 1.2 µL/min/mg
- half-life at 1 μM (Plasma stability, mouse): > 2.5 h
- Papp at 300 min (Calu-3 permeability): 170 ± 10 nm/s
- inhibition at 100 µM (MMP-1; 100 μM): < 10%
- inhibition at 100 µM (MMP-2; 100 μM): < 10%
- inhibition at 100 µM (MMP-3; 100 μM): < 10%
- inhibition at 100 µM (HDAC-3): < 10%
- inhibition at 100 µM (HDAC-8): < 10%
- inhibition at 100 µM (TACE; 100 μM): < 10%
- inhibition at 100 µM (COX-1): < 10%

SMILES: Cc1ccc(NC(=O)C(CC(C)C)OS(N)(=O)=O)cc1 (stereo not drawn) [Compound 3c]
- IC50 (LasB; LasB IC50, FRET-based assay): 53 ± 4 µM

SMILES: Cc1ccc(NC(=O)C(CC(C)C)P(=O)(O)O)c(C)c1 (stereo not drawn) [Compound 4e]
- IC50 (LasB; [4]): 0.0845 ± 0.0027 µM
- fold drop in activity compared to the 4-Me derivative (4a) (LasB): ~2 fold

SMILES: CC(C)CC(C(=O)Nc1cccc2ccccc12)P(=O)(O)O (stereo not drawn) [Compound 4m]
- IC50 (LasB; [4]): 0.0691 ± 0.0075 µM

SMILES: Cc1ccc(NC(=O)C(CC(C)C)C(=O)O)cc1 (stereo not drawn) [Compound 3e]
- inhibition at 100 µM (LasB): 46 ± 3%

SMILES: CC(=O)c1ccc(NC(=O)CP(=O)(O)O)cc1 [Compound 2]
- inhibition at 600 µM (LasB; read-out: % LasB inhibition @600 µM): 33 ± 4%

SMILES: CC(C)CC(C(=O)Nc1ccc(Cl)c(Cl)c1)P(=O)(O)O (stereo not drawn) [Compound 4c]
- IC50 (LasB; LasB IC50, FRET-based assay): 0.0257 ± 0.0041 µM
- fold more active than 4-acetyl (4g) (LasB; vs 4g): 1.6 fold
- inhibition at 1 µM (ColH-PD): < 10%

SMILES: Cc1ccc(NC(=O)C(CC(C)C)n2cncn2)cc1 (stereo not drawn) [Compound 3n]
- inhibition at 100 µM (LasB): < 10%

SMILES: CC(C)CC(C(=O)Nc1ccc(C#N)cc1)P(=O)(O)O (stereo not drawn) [Compound 4k]
- IC50 (LasB; LasB IC50, FRET-based assay): ~0.025 µM
- IC50 (LasB; LasB IC50 in presence of 1% pulmonary surfactant, 1% pulmonary surfactant): 0.085 µM
- chromatographic logD [1]: -0.87
- microsomal CLint at 1 μM [2]: < 5.8 µL/min/mg
- microsomal CLint at 1 μM [3]: < 5.8 µL/min/mg
- half-life at 1 μM (Plasma stability, mouse): > 2.5 h
- inhibition at 100 µM (MMP-1): 10 ± 5%
- inhibition at 100 µM (MMP-2): < 10%
- inhibition at 100 µM (MMP-3): 11 ± 5%
- inhibition at 100 µM (TACE): < 10%
- inhibition at 100 µM (COX-1): < 10%
- inhibition at 100 µM (P. aeruginosa PA14): < 10%
- % growth inhibition HEK293 (HEK293): 15 ± 23%

SMILES: Cc1ccc(NC(=O)C(CC(C)C)n2nccn2)cc1 (stereo not drawn) [Compound 3m]
- chromatographic logD [1]: > 1.8
- microsomal CLint at 1 μM [2]: 356 ± 45 µL/min/mg
- microsomal CLint at 1 μM [3]: 18.5 ± 0.9 µL/min/mg
- half-life at 1 μM (Plasma stability, mouse): > 2.5 h
- Papp at 300 min (Calu-3 permeability): 180 ± 10 nm/s
- inhibition at 100 µM (MMP-1; 100 μM): < 10%
- inhibition at 100 µM (MMP-2; 100 μM): < 10%
- inhibition at 100 µM (MMP-3; 100 μM): < 10%
- inhibition at 100 µM (HDAC-3): < 10%
- inhibition at 100 µM (HDAC-8): < 10%
- inhibition at 100 µM (TACE; 100 μM): < 10%
- inhibition at 100 µM (COX-1): < 10%
- % growth inhibition HEK293 (HEK293): 21 ± 1%

SMILES: CC(C)CC(C(=O)Nc1ccc2ccccc2c1)P(=O)(O)O (stereo not drawn) [Compound 4n]
- IC50 (LasB; [4]): 0.0636 ± 0.0099 µM
